Experimental data: patent US10081631B2, “2-(1H-indazol-3-yl)-1H-imidazo[4,5-C]pyridine and therapeutic uses thereof” (Samumed, LLC, priority 2014, dated 2018)

How the values were obtained:
[1] = test system: Wnt activity (Sp5-Luc reporter, SW480 colon carcinoma cells); experiment: Screening assay for Wnt activity: Sp5-Luc reporter gene assay in SW480 cells; type: cell-based; details: Homo sapiens, 42 h incubation, luminescence
Description: The screening assay for Wnt activity is described as follows. Reporter cell lines can be generated by stably transducing cancer cell lines (e.g., colon cancer) or primary cells (e.g., IEC-6 intestinal cells) with a lentiviral construct that includes a Wnt-responsive promoter driving expression of the firefly luciferase gene.
SW480 colon carcinoma cells were transduced with a lentiviral vector expressing luciferase with a human Sp5 promoter consisting of a sequence of eight TCF/LEF binding sites. SW480 cells stably expressing the Sp5-Luc reporter gene and a hygromycin resistance gene were selected by treatment with 150 μg/ml of hygromycin for 7 days. These stably transduced SW480 cells were expanded in cell culture and used for all further screening activities. For Sp5-Luc reporter gene assays, the cells were plated at 10,000 cells/well in 96-well plates with growth medium containing 10% fetal calf serum and incubated overnight at 37° C. and 5% CO2. Each compound was dissolved in DMSO as a 10 mM stock in standard j-vials and used to prepare compound source plates in dose-response format with 3-fold serial dilutions and a 10 mM top concentration. Compound transfer from serially diluted source plates to assay plates containing the cells was accomplished using a pintool (Multimek 96, Beckman equipped with V&P Scientific FP1S50H pins) based liquid handling protocol. This protocol used a slotted pin to transfer 50 nl of compound from a source plate well to an assay plate well containing 50 μl of cells in growth medium. […] Control wells received 50 nl of DMSO treatment for normalization and calculating IC50 values. The treated cells were incubated at 37° C. and 5% CO2 for an additional forty-two hours. Following incubation, the growth medium was removed and 50 μl of BrightGlo luminescence reagent (Promega) was added to each well of the 96-well assay plates. The plates were placed on an orbital shaker for 5 min and then luminescence was quantified on the Victor3 (Perkin Elmer) plate reader. Readings were normalized to DMSO only treated cells, and normalized activities were utilized for IC50 calculations using the dose-response log (inhibitor) vs. response-variable slope (four parameters) nonlinear regression feature available in GraphPad Prism 5.0 or 6.0.

[2] = test system: primary human fibroblasts derived from IPF patients (LL29 cells); experiment: Inhibition of fibrosis: TGF-β1-treated primary human fibroblasts from IPF patients (LL29), αSMA staining; type: cell-based; details: Fibroblast, 96 h, TGF-β1 20 ng/mL, 4 days, % αSMA-positive cells
Description: The above synthesized compounds were screened using primary human fibroblasts (derived from IPF patients) treated with TGF-β1 to determine their ability to inhibit the fibrotic process.
Primary human fibroblasts derived from IPF patients (LL29 cells) [^1Xiaoqiu Liu, et. al., “Fibrotic Lung Fibroblasts Show Blunted Inhibition by cAMP Due to Deficient cAMP Response Element-Binding Protein Phosphorylation”, Journal of Pharmacology and Experimental Therapeutics (2005), 315(2), 678-687; ^2Watts, K. L., et. al., “RhoA signaling modulates cyclin D1 expression in human lung fibroblasts; implications for idiopathic pulmonary fibrosis”, Respiratory Research (2006), 7(1), 88] were obtained from American Type Culture Collection (ATCC) and expanded in F12 medium supplemented with 15% Fetal Bovine Serum and Penicillin/Streptomycin.
Each compound was dissolved in DMSO as a 10 mM stock and used to prepare compound source plates. Serial dilution (1:2, 11-point dose-response curves from 10 μM to 1.87 nM) and compound transfer was performed using the ECHO 550 (Labcyte, Sunnyvale, Calif.) into 384-well clear bottom assay plates (Greiner Bio-One) with appropriate DMSO backfill for a final DMSO concentration of 0.1%. LL29 cells were plated at 1,500 cells/well in 80 μl/well F12 medium supplemented with 1% Fetal Bovine Serum. One hour after addition of the cells, TGF-β1 (Peprotech; 20 ng/mL) was added to the plates to induce fibrosis (ref 1 and 2 above). Wells treated with TGF-β1 and containing DMSO were used as controls. Cells were incubated at 37° C. and 5% CO2 for 4 days. Following incubation for 4 days, SYTOX green nucleic acid stain (Life Technologies [Thermo Fisher Scientific]) was added to the wells at a final concentration of 1 uM and incubated at room temperature for 30 min. Cells were then fixed using 4% formaldehyde (Electron Microscopy Sciences), washed 3 times with PBS followed by blocking and permeabilization using 3% Bovine Serum Albumin (BSA; Sigma) and 0.3% Triton X-100 (Sigma) in PBS. Cells were then stained with antibody specific to α-smooth muscle actin (αSMA; Abcam) (ref 1 and 2 above) in 3% Bovine Serum Albumin (BSA; Sigma) and 0.3% Triton X-100 (Sigma) in PBS, and incubated overnight at 4° C. Cells were then washed 3 times with PBS, followed by incubation with Alexa Flor-647 conjugated secondary antibody (Life Technologies [Thermo Fisher Scientific]) and DAPI at room temperature for 1 hour. Cells were then washed 3 times with PBS and plates were sealed for imaging. αSMA staining was imaged by excitation at 630 nm and emission at 665 nm and quantified using the Compartmental Analysis program on the CellInsight CX5 (Thermo Scientific). Dead or apoptotic cells were excluded from analysis based on positive SYTOX green staining. % of total cells positive for αSMA were counted in each well and normalized to the average of 11 wells treated with TGF-β1 on the same plate using Dotmatics' Studies Software. The normalized averages (fold change over untreated) of 3 replicate wells for each compound concentration were used to create dose-responses curves and EC50 values were calculated using non-linear regression curve fit in the Dotmatics' Studies Software. The EC50 values are reported.

IC50 [1] | Compound | EC50 [2]
69.1 nM | O=C(Cc1ccccc1)Nc1cncc(-c2ccc3[nH]nc(-c4nc5c(-c6ccsc6)nccc5[nH]4)c3c2)c1 [Compound 244, 2-Phenyl-N-(5-(3-(4-(thiophen-3-yl)-1H-imidazo[4,5-c]pyridin-2-yl)-1H-indazol-5-yl)pyridin-3-yl)acetamide] | 203 nM
9 nM | CC(=O)c1ccc(-c2nccc3[nH]c(-c4n[nH]c5ccc(-c6cncc(NC(=O)Cc7ccccc7)c6)cc45)nc23)s1 [Compound 374, N-(5-(3-(4-(5-Acetylthiophen-2-yl)-1H-imidazo[4,5-c]pyridin-2-yl)-1H-indazol-5-yl)pyridin-3-yl)-2-phenylacetamide] | 9 nM
539 nM | CN(C)CCNc1cc(F)cc(-c2nccc3[nH]c(-c4n[nH]c5ccc(-c6cncc(CNCC7CCCC7)c6)cc45)nc23)c1 [Compound 440, N^1-(3-(2-(5-(5-(((Cyclopentylmethyl)amino)methyl)pyridin-3-yl)-1H-indazol-3-yl)-1H-imidazo[4,5-c]pyridin-4-yl)-5-fluorophenyl)-N^2,N^2-dimethylethane-1,2-diamine] | 9 nM
> 10000 nM | Fc1cccc(-c2nccc3[nH]c(-c4n[nH]c5ccc(-c6ccncc6)cc45)nc23)c1 [Compound 1784, 4-(3-Fluorophenyl)-2-(5-(pyridin-4-yl)-1H-indazol-3-yl)-1H-imidazo[4,5-c]pyridine] | 9990 nM
476 nM | CC(=O)c1ccc(-c2nccc3[nH]c(-c4n[nH]c5ccc(-c6cncc(NC(=O)C7CCCCC7)c6)cc45)nc23)s1 [Compound 386, N-(5-(3-(4-(5-Acetylthiophen-2-yl)-1H-imidazo[4,5-c]pyridin-2-yl)-1H-indazol-5-yl)pyridin-3-yl)cyclohexanecarboxamide] | 536 nM
15 nM | CCCCC(=O)Nc1cncc(-c2ccc3[nH]nc(-c4nc5c(-c6ccoc6)nccc5[nH]4)c3c2)c1 [Compound 278, N-(5-(3-(4-(Furan-3-yl)-1H-imidazo[4,5-c]pyridin-2-yl)-1H-indazol-5-yl)pyridin-3-yl)pentanamide] | 291 nM
36 nM | CCNCc1cncc(-c2ccc3[nH]nc(-c4nc5c(-c6ccoc6)nccc5[nH]4)c3c2)c1 [Compound 266, N-((5-(3-(4-(Furan-3-yl)-1H-imidazo[4,5-c]pyridin-2-yl)-1H-indazol-5-yl)pyridin-3-yl)methyl)ethanamine] | 9 nM
47 nM | c1ccc(CNCc2cncc(-c3ccc4[nH]nc(-c5nc6c(-c7cccnc7)nccc6[nH]5)c4c3)c2)cc1 [Compound 101, N-Benzyl-1-(5-(3-(4-(pyridin-3-yl)-1H-imidazo[4,5-c]pyridin-2-yl)-1H-indazol-5-yl)pyridin-3-yl)methanamine] | 2430 nM
32 nM | CS(=O)(=O)NCc1cc(F)cc(-c2nccc3[nH]c(-c4n[nH]c5ccc(-c6cncc(NC(=O)c7ccccc7)c6)cc45)nc23)c1 [Compound 401, N-(5-(3-(4-(3-Fluoro-5-(methylsulfonamidomethyl)phenyl)-1H-imidazo[4,5-c]pyridin-2-yl)-1H-indazol-5-yl)pyridin-3-yl)benzamide] | 9990 nM
187 nM | CS(=O)(=O)NCc1cc(F)cc(-c2nccc3[nH]c(-c4n[nH]c5ccc(-c6cncc(CNCc7ccccc7)c6)cc45)nc23)c1 [Compound 413, N-(3-(2-(5-(5-((Benzylamino)methyl)pyridin-3-yl)-1H-indazol-3-yl)-1H-imidazo[4,5-c]pyridin-4-yl)-5-fluorobenzyl)methanesulfonamide] | 9 nM
192 nM | CN(C)CCOc1cncc(-c2ccc3[nH]nc(-c4nc5c(-c6cccc(F)c6)nccc5[nH]4)c3c2)c1 [Compound 1779, 2-((5-(3-(4-(3-Fluorophenyl)-1H-imidazo[4,5-c]pyridin-2-yl)-1H-indazol-5-yl)pyridin-3-yl)oxy)-N,N-dimethylethan-1-amine] | 41 nM
439 nM | CN1CCN(c2nccc3[nH]c(-c4n[nH]c5ccc(-c6cncc(F)c6)cc45)nc23)CC1 [Compound 2276, 2-(5-(5-Fluoropyridin-3-yl)-1H-indazol-3-yl)-4-(4-methylpiperazin-1-yl)-1H-imidazo[4,5-c]pyridine] | –
35 nM | CC(C)CC(=O)Nc1cncc(-c2ccc3[nH]nc(-c4nc5c(-c6cc(O)cc(F)c6)nccc5[nH]4)c3c2)c1 [Compound 2164, N-(5-(3-(4-(3-Fluoro-5-hydroxyphenyl)-1H-imidazo[4,5-c]pyridin-2-yl)-1H-indazol-5-yl)pyridin-3-yl)-3-methylbutanamide] | –
90 nM | CN(C)Cc1cncc(-c2cc(F)c3[nH]nc(-c4nc5c(-c6cccc(F)c6)nccc5[nH]4)c3c2)c1 [Compound 456, 1-(5-(7-Fluoro-3-(4-(3-fluorophenyl)-1H-imidazo[4,5-c]pyridin-2-yl)-1H-indazol-5-yl)pyridin-3-yl)-N,N-dimethylmethanamine] | –
505 nM | O=C(CC1CCCCC1)Nc1cncc(-c2ccc3[nH]nc(-c4nc5c(-c6cccc(F)c6)nccc5[nH]4)c3c2)c1 [Compound 1783, 2-Cyclohexyl-N-(5-(3-(4-(3-fluorophenyl)-1H-imidazo[4,5-c]pyridin-2-yl)-1H-indazol-5-yl)pyridin-3-yl)acetamide] | –
65 nM | CN1CCN(c2nccc3[nH]c(-c4n[nH]c5ccc(-c6cccnc6)cc45)nc23)CC1 [Compound 212, 4-(4-Methylpiperazin-1-yl)-2-(5-(pyridin-3-yl)-1H-indazol-3-yl)-1H-imidazo [4,5-c]pyridine] | –
1100 nM | CN(C)Cc1cncc(-c2ccc3[nH]nc(-c4nc5c(-c6cc(F)cc(CNS(C)(=O)=O)c6)nccc5[nH]4)c3c2F)c1 [Compound 1729, N-(3-(2-(5-(5-((Dimethylamino)methyl)pyridin-3-yl)-4-fluoro-1H-indazol-3-yl)-1H-imidazo[4,5-c]pyridin-4-yl)-5-fluorobenzyl)methanesulfonamide] | –
102 nM | CCCC(=O)Nc1cncc(-c2ccc3[nH]nc(-c4nc5c(-c6ccncc6)nccc5[nH]4)c3c2)c1 [Compound 121, N-(5-(3-(4-(Pyridin-4-yl)-1H-imidazo[4,5-c]pyridin-2-yl)-1H-indazol-5-yl)pyridin-3-yl)butyramide] | –
280 nM | Fc1cccc(-c2nccc3[nH]c(-c4n[nH]c5ccc(-c6cncc(OCCN7CCCC7)c6)cc45)nc23)c1 [Compound 1778, 4-(3-Fluorophenyl)-2-(5-(5-(2-(pyrrolidin-1-yl)ethoxy)pyridin-3-yl)-1H-indazol-3-yl)-1H-imidazo[4,5-c]pyridine] | –
